Measurements: patent US12150927B2, “Use of cannabidiolic acid in the treatment of autism spectrum disorder and associated disorders” (GW Research Limited, priority 2016, dated 2024)

What was measured:
VPA rats = test: Short-term memory, novel object recognition test, rat VPA model; type: in vivo, Sprague-Dawley rats; conditions: FIG. 2C
Method: Pregnant Sprague-Dawley rats (Charles River, Calco, Italy), received a single intraperitoneal injection of 500 mg/kg sodium valproate on the 12.5 day after conception, and control females were injected with physiological saline at the same time. Sodium valproate (Sigma Aldrich, Milan, IT) was dissolved in saline at a concentration of 250 mg/ml.
CBDA was dissolved in ethanol, cremophor and saline (1:1:18). Symptomatic treatment with CBDA at doses of 2 and 20 mg/kg/day i.p. was performed starting from PND 34 (early adolescence) till 56 (early adulthood), both in male and female offspring of dams injected with VPA 500 mg/kg (or vehicle) on day 12.5 after conception. At PND 56, a series of behavioural tests was performed in order to assess the effect of chronic CBDA on sociability, social novelty, short-term memory, locomotion and stereotyped/repetitive behaviours.
Short-term memory: The experimental apparatus used for the object recognition test was an open-field box (43×43×32 cm) made of Plexiglas, placed in a dimly illuminated room. The experiment was performed and analysed as previously described (Zamberletti et al, 2014). Animals performed each test individually.
Each animal was placed in the arena and allowed to explore two identical previously unseen objects for 5 minutes (familiarization phase). After an inter-trial interval of 3 minutes one of the two familiar objects was replaced by a novel, previously unseen object and rats were returned to the arena for the 5-minute test phase. During the test phase the time spent exploring the familiar object (Ef) and the new object (En) was videotaped and recorded separately by two observers blind to the treatment groups and the discrimination index was calculated as follows: [(En−Ef)/(En+Ef)]×100.

MeCP2 KO mice = test: Symptom scoring, mouse model of Rett syndrome; type: in vivo; conditions: chronic CBDA 2 and 20 mg/kg i.p., FIG. 7-9
Method: CBDA was administered daily at the dose of 2 or 20 mg/kg i.p. starting from PND 28 and the following signs were scored every other day: hindlimb clasping (indication of motor imbalance), tremor, gait (measure of coordination), breathing, mobility and general condition.
The CBDA was dissolved in ethanol, cremophor and saline (1:1:18). Starting from PND 28, mice received a daily intraperitoneal injection of CBDA (or vehicle) at the dose of 2 or 20 mg/kg. Animals were then scored every other day to evaluate the effect of CBDA treatment on motor symptoms (hindlimb clasping, gait, mobility) as well as neurological signs and general conditions (breathing abnormalities, tremors and general condition) present in MeCP2 knockout (KO) mice.
Each of the six symptoms was scored from 0 to 2 (0 corresponds to the symptom being absent or the same as in the wild type (WT) animal; 1 when the symptom was present; 2 when the symptom was severe).
Mobility: the mouse is observed when placed on bench, then when handled gently. 0=as WT. 1=reduced movement when compared with WT: extended freezing period when first placed on bench and longer periods spent immobile. 2=no spontaneous movement when placed on the bench; mouse can move in response to a gentle prod or a food pellet placed nearby.
Gait: 0=as WT. […]

Ube3am-/p+ (AS) mice = test: Rotarod test, mouse model of Angelman syndrome; type: in vivo; conditions: chronic treatment (30 days) CBDA 20 mg/kg i.p., 10 weeks, vs AS vehicle, FIG. 13
Method: Heterozygous mice with maternal deficiency of Ube3A (Ube3am−/p+) and wild type (Ube3am+/p+) were purchased from The Jackson Laboratory (Jackson code: B6.129S7-Ube3a tm1Alb/J) and maintained in a C57BL/6 background.
Drugs were dissolved in 1:1:18 ethanol:cremophor:0.9% saline, for intraperitoneal (i.p.) administration. […] CBDA was administered at 20 mg/kg.
Rotarod: The rotarod test assesses balance and motor coordination of mice. Mice have been measured for the time (in seconds) of equilibrium before falling on a rotary cylinder by a magnet that, activated from the fall of the mouse on the plate, allows to record the time of permanence on the cylinder. […] The animals were analysed by 2 separate tests at 1-h interval in the same day.

animal models of seizure = conditions: co-pending UK patent application GB1514079.1; cited from earlier work

C=C(C)[C@@H]1CCC(C)=C[C@H]1c1c(O)cc(CCCCC)c(C(=O)O)c1O [CBDA, Cannabidiolic acid]
short-term memory (discrimination index) (VPA rats; CBDA 20 mg/kg/day i.p., female VPA rats): able to reverse the short-term memory deficit
short-term memory (discrimination index) (VPA rats; CBDA 2 and 20 mg/kg/day i.p., male VPA rats): completely and significantly reversed the short-term memory deficit
recognition memory per se (VPA rats; CBDA given to vehicle-treated (non VPA) rats): without affecting per se recognition memory
total symptom score (tremor, breathing, hindlimb clasping, gait, general condition, mobility) (MeCP2 KO mice): partially improve these symptoms and decrease the total symptom score, however these data were not significant
latency to fall (rotarod) (Ube3am-/p+ (AS) mice): significantly reduced latency to fall
efficacy in animal models of seizure (animal models of seizure): effective in animal models of seizure
